{"source": "ChEMBL document CHEMBL5465560", "about": "“Selectivity Literature for EUbOPEN Chemogenomic Library” (2024)", "key": {"[1]": {"biological_target": "T1, Serine/threonine-protein kinase BRSK1 (Homo sapiens) (UniProt Q8TDC3)", "T1 sequence (whole entry)": "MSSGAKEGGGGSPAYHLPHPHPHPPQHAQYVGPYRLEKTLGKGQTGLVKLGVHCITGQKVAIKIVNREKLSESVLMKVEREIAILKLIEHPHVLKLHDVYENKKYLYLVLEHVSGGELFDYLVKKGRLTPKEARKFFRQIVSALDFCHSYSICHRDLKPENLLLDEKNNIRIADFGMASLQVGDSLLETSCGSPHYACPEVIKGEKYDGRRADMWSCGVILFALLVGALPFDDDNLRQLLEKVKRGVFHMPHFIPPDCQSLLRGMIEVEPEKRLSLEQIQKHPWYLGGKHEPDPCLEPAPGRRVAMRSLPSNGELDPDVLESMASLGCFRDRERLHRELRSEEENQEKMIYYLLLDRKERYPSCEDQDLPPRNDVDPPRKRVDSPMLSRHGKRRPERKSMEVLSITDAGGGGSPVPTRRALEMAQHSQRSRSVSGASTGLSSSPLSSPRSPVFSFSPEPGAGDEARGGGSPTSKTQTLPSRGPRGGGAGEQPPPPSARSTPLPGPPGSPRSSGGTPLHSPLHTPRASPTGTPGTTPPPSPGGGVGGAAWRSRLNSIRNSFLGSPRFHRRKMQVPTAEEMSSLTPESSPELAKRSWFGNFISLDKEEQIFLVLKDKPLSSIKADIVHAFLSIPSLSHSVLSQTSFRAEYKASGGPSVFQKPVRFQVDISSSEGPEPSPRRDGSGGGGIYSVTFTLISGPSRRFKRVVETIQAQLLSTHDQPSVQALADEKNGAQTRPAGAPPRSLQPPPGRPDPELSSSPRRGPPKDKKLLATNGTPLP", "experiment": "Selectivity interaction (KinomeScan (DiscoverX)) EUB0000229b BRSK1", "details": "at 10 µM"}, "[2]": {"biological_target": "Activin receptor type-2A (Homo sapiens) (UniProt P27037)", "sequence (P27037 whole entry)": "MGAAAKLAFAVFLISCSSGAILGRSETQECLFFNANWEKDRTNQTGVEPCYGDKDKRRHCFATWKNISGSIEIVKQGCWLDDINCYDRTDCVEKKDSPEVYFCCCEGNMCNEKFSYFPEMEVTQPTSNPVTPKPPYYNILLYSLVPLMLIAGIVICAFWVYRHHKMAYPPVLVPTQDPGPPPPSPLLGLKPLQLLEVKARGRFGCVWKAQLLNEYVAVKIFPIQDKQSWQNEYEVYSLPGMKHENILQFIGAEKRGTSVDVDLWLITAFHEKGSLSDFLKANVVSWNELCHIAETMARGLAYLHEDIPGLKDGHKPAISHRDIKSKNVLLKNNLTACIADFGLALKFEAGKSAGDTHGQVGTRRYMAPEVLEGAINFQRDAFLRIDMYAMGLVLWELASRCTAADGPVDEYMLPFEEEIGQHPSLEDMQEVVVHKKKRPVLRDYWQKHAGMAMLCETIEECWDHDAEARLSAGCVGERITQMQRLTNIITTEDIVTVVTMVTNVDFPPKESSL", "experiment": "Selectivity interaction (KinomeScan (DiscoverX)) EUB0000595a ACVR2A", "details": "at 10 µM"}, "[3]": {"biological_target": "Mitogen-activated protein kinase kinase kinase 10 (Homo sapiens) (UniProt Q02779)", "experiment": "Selectivity interaction (KinomeScan (DiscoverX)) EUB0000695a MAP3K10", "details": "at 100 nM"}, "[4]": {"biological_target": "Fibroblast growth factor receptor 4 (Homo sapiens, UniProt P22455)", "experiment": "Selectivity interaction (Kinase panel (Z-LYTE Assay)) EUB0001632a FGFR4", "details": "at 10 µM"}, "[5]": {"biological_target": "Fibroblast growth factor receptor 1 (Homo sapiens, UniProt P11362)", "sequence (P11362 whole entry)": "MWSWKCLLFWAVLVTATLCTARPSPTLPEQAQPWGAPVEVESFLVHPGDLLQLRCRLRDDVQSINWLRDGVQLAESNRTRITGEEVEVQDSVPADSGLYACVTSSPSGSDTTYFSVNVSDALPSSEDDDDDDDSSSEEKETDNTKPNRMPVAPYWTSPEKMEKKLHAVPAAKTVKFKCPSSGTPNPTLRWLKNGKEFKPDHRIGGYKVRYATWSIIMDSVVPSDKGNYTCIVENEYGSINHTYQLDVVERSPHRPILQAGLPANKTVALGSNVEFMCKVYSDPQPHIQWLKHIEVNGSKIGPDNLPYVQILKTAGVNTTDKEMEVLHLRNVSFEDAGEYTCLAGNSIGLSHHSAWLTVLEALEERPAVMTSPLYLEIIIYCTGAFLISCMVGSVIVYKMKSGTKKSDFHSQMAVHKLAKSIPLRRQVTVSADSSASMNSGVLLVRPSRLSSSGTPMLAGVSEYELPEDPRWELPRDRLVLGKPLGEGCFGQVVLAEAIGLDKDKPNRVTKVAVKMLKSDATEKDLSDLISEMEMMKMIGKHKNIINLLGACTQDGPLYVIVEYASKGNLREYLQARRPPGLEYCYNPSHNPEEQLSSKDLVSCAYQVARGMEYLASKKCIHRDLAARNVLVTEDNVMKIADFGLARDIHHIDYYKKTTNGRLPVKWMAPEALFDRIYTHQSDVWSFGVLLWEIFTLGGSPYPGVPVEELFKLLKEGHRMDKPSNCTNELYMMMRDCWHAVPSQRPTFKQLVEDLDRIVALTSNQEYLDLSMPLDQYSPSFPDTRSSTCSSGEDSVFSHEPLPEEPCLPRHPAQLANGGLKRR"}, "[6]": {"biological_target": "Serine/threonine-protein kinase SIK3 (Homo sapiens) (UniProt Q9Y2K2)", "experiment": "Selectivity interaction (ActivX KiNativ screen (ex vivo kinase selectivity in human PBMCs)) EUB0001619a SIK3", "format": "cell-based", "details": "PBMC, at 1 µM"}, "[7]": {"biological_target": "Tyrosine-protein kinase Lck (Homo sapiens, UniProt P06239)", "experiment": "Selectivity interaction (Kinase panel (literature)) EUB0001199aCl LCK", "details": "at 1 µM"}, "[8]": {"biological_target": "Cyclin-dependent kinase 18 (Homo sapiens) (UniProt Q07002)", "sequence (Q07002 whole entry)": "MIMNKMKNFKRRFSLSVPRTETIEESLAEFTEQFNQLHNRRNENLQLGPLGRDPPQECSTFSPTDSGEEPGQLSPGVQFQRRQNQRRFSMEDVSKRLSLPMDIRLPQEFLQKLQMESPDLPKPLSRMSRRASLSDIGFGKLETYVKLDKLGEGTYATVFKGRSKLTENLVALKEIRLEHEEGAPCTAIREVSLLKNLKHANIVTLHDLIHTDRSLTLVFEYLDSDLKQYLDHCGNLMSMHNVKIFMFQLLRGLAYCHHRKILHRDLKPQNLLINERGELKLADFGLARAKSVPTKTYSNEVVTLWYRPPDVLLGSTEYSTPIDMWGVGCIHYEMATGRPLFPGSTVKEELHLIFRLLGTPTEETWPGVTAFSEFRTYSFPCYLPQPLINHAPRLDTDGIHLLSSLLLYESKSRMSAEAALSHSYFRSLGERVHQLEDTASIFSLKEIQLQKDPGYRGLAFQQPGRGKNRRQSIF", "experiment": "Selectivity interaction (ActivX KiNativ screen (kinase selectivity in THP-1 cell lysates)) EUB0000639a CDK18", "format": "subcellular", "details": "lysate"}, "[9]": {"biological_target": "Proto-oncogene tyrosine-protein kinase ROS (Homo sapiens) (UniProt P08922)", "sequence (P08922 whole entry)": "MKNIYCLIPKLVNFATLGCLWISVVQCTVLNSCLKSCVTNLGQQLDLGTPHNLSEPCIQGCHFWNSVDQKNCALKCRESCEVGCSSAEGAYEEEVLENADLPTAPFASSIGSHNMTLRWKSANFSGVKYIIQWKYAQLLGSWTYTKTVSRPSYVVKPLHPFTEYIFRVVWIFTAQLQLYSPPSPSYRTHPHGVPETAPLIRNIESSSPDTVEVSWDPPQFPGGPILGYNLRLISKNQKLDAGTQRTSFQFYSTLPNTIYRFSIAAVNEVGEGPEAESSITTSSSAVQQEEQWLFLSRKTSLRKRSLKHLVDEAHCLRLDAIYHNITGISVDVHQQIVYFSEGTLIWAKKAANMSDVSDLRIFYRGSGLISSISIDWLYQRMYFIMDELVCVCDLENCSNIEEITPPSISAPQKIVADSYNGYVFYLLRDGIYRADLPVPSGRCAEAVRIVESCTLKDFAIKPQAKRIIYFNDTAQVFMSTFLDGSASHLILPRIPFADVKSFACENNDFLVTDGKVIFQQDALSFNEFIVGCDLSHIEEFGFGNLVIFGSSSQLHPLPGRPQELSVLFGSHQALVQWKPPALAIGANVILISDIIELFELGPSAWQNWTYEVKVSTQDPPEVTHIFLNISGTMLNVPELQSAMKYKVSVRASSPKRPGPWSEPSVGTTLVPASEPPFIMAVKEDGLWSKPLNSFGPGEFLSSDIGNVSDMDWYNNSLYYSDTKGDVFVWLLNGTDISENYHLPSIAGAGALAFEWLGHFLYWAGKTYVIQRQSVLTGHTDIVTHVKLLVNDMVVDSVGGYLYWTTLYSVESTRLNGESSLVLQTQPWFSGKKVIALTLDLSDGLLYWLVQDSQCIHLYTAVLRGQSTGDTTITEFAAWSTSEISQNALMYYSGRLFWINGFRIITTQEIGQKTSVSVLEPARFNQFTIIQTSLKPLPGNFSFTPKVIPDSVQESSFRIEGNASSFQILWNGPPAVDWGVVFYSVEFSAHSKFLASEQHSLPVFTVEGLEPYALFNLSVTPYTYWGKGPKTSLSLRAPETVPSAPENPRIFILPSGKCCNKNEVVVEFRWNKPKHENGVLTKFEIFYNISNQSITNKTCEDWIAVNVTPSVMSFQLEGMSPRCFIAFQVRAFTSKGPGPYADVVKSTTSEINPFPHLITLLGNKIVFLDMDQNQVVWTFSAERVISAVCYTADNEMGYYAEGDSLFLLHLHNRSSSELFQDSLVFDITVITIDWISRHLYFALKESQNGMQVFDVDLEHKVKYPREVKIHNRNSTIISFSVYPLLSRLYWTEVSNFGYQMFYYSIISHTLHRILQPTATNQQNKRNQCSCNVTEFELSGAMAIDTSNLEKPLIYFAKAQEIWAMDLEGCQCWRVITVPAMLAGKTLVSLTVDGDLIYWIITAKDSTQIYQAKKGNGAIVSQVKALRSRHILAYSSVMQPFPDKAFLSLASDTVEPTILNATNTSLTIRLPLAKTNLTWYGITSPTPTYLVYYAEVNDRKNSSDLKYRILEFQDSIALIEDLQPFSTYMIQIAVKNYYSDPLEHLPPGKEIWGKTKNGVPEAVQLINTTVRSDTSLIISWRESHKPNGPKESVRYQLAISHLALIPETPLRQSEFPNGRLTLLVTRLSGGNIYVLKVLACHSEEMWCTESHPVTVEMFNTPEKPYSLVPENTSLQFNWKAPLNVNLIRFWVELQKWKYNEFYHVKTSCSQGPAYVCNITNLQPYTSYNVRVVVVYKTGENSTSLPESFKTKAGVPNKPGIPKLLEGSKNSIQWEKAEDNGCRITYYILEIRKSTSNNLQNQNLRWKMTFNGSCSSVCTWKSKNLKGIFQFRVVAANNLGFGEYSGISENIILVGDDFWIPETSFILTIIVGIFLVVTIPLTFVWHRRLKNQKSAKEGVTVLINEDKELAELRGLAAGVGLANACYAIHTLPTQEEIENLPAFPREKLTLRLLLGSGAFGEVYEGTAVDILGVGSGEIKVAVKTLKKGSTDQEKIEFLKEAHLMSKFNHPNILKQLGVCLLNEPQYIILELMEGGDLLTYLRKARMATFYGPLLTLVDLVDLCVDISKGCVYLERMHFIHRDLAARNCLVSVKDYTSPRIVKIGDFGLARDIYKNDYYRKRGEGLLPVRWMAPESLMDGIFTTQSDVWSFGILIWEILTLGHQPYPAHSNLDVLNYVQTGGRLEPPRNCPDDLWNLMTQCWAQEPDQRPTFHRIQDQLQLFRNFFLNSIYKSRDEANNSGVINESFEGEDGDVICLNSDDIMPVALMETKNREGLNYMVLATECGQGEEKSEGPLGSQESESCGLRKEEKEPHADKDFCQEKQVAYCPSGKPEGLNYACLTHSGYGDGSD", "experiment": "Selectivity interaction (Kinase panel (Invitrogen)) EUB0000639a ROS1", "details": "at 200 nM"}, "[10]": {"biological_target": "T2, Ephrin type-A receptor 1 (Homo sapiens) (UniProt P21709)", "T2 sequence (whole entry)": "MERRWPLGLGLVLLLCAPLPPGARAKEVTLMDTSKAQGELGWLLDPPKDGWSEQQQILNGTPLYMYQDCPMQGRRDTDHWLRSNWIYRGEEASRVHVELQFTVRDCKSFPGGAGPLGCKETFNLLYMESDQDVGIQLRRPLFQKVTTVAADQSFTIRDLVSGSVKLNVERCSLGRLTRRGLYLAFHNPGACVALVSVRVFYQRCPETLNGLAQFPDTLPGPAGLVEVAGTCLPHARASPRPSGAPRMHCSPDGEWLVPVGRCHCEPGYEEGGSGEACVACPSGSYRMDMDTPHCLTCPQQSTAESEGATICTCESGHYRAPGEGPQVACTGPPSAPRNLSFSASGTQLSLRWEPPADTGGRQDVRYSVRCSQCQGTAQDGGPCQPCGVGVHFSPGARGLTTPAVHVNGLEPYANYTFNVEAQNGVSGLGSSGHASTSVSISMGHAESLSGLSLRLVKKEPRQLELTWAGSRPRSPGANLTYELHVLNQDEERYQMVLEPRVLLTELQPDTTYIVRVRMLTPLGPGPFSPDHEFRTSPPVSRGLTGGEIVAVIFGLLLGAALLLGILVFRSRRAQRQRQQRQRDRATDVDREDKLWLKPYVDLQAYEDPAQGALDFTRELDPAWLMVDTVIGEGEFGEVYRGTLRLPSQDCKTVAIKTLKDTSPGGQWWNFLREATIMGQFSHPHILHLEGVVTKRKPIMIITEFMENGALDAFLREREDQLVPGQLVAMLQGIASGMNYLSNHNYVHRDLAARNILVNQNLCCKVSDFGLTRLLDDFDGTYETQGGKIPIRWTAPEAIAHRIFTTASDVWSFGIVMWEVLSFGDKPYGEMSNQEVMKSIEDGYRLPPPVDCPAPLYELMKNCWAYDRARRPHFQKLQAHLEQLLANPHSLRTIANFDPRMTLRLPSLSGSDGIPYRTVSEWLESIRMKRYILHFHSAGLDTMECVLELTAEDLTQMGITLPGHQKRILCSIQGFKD", "details": "at 10 µM"}, "[11]": {"biological_target": "Serine/threonine-protein kinase MARK2 (Homo sapiens) (UniProt Q7KZI7)", "sequence (Q7KZI7 whole entry)": "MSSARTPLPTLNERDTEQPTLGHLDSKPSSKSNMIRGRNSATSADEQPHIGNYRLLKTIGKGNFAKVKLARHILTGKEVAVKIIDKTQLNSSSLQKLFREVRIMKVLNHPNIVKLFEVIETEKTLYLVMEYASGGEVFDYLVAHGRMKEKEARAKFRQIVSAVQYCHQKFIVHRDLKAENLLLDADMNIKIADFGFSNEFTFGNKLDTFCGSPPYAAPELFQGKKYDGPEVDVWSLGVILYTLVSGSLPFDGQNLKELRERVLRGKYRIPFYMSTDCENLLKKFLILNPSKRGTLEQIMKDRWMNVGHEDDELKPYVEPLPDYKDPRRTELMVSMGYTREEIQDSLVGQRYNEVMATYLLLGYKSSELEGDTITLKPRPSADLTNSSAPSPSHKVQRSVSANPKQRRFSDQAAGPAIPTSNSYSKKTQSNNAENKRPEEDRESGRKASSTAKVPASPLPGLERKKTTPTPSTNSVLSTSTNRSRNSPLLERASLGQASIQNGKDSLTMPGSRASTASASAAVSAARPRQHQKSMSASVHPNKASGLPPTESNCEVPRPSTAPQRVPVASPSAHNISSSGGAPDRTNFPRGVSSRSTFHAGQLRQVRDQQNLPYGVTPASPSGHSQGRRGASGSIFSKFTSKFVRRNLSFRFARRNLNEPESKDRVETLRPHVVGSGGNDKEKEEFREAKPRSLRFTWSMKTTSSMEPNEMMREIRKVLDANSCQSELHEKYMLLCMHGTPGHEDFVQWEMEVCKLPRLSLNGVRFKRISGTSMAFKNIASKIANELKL", "details": "at 10 µM"}}}
{"molecule": "COc1cc(N(C)c2ccnc3ccc(C(F)(F)F)cc23)cc(OC)c1OC", "values": [{"measurement": "% binding", "setting": "[1]", "value": 86, "unit": "%"}]}
{"molecule": "COCC(=O)NC/C=C/c1ccc2ncnc(Nc3ccc(Oc4ccc(C)nc4)c(C)c3)c2c1", "note": "[CP-724714]", "values": [{"measurement": "% of control", "setting": "[2]", "value": 100, "unit": "%"}]}
{"molecule": "Cc1cc(F)c(C(=O)Nc2cccc(-c3nncn3C(C)C)n2)cc1-n1cnc(C2CC2)c1", "values": [{"measurement": "% of control", "setting": "[3]", "value": 100, "unit": "%"}]}
{"molecule": "Cn1cc(-n2cnc3c(NCc4nc5cc(Cl)c(Cl)cc5[nH]4)nc(N4CCOCC4)nc32)cn1", "values": [{"measurement": "% of control", "setting": "[4]", "value": 3.57, "unit": "%"}]}
{"molecule": "CCc1cccc(CC)c1NC(=O)c1nn(C)c2c1CCc1cnc(Nc3ccc(C(=O)NC4CCN(C)CC4)cc3OC(F)(F)F)nc1-2", "values": [{"measurement": "IC50", "setting": "[5]", "value": "> 10", "unit": "µM"}]}
{"molecule": "N#Cc1cccc(-c2c[nH]c3ncnc(N4CCOCC4)c23)c1", "values": [{"measurement": "% of inhibition", "setting": "[6]", "value": 14, "unit": "%"}]}
{"molecule": "CN1Cc2nccc(-c3cn(C)nc3-c3ccc(F)cc3)c2C1=O", "values": [{"measurement": "% of inhibition", "setting": "[7]", "value": 3, "unit": "%"}]}
{"molecule": "CC[C@@H]1[C@H](F)C(=O)N[C@@H]1COc1nccc2cc(C(N)=O)c(OC)cc12", "note": "[ZIMLOVISERTIB]", "values": [{"measurement": "% of inhibition", "setting": "[8]; at 0.01 µM", "value": -0.6, "unit": "%"}, {"measurement": "% of inhibition", "setting": "[8]; at 0.04 µM", "value": 0.5, "unit": "%"}, {"measurement": "% of inhibition", "setting": "[8]; at 0.2 µM", "value": -0.8, "unit": "%"}, {"measurement": "% of inhibition", "setting": "[8]; at 1 µM", "value": 7.7, "unit": "%"}, {"measurement": "% of inhibition", "setting": "[8]; at 5 µM", "value": 41.7, "unit": "%"}, {"measurement": "% of inhibition", "setting": "[9]", "value": 18.1, "unit": "%"}]}
{"molecule": "CCN(CC)CCCCNc1ncc2cc(-c3cc(OC)cc(OC)c3)c(NC(=O)NC(C)(C)C)nc2n1", "values": [{"measurement": "% of control", "setting": "[10]", "value": 100, "unit": "%"}, {"measurement": "% of control", "setting": "[11]", "value": 100, "unit": "%"}]}
